Tests used:
RAR subtypes = conditions: cited from earlier work
[1] = test system: elastase-induced emphysema; assay: Alveolar repair in rat model of elastase-induced emphysema, intraperitoneal; assay type: in vivo, male Sprague Dawley rats; design: Alveolar Area: unit not given here
Description: Animals were divided into treatment groups of approximately eight. […] Three weeks post injury ATRA or a RAR selective agonist was dissolved in DMSO (20 mg/ml) and stored at -20 C. Fresh working stocks were prepared fresh daily by dilution in corn oil to a final concentration of 2 mg/ml. […] Control groups were challenged with elastase and 21 days later treated with Vehicle (DMSO/PBS) for 14 days. Animals were sacrificed 24 hours after the last dose of by exsanguination under deep anesthesia. Blood was collected at time of exanguination for analysis of changes in blood chemistry from respective treatments. The lungs were inflated with 10% neutral buffered formalin by intratracheal instillation at a constant rate (1 ml/gram body mass/min). The lung was excised and immersed in fixative for 24 hours prior to processing. Standard methods were used to prepare 5 um paraffin sections. Sections were stained with Hematoxylin and Eosin (H%E). Computerized Morphometric analysis was performed to determine the average alveolar size and alveolar number.

tropoelastin gene = assay: RAR transactivation of steady state tropoelastin gene in normal human lung fibroblasts (CCD-16Lu); assay type: cell-based
Description: Transactivation of the tropoelastin gene in normal human lung fibroblasts (CCD-16Lu) was performed as described below. Cells were grown to confluence at which time fresh media +/- ATRA or selective retiniod was added to the basal culture. ATRA and/or selective retiniods were used at a concentration of 1×10^-7 M. The cell layer was lysed using a guanidinium-based buffer (TRIZOL/Sigma) for RNA extraction and analysis. Amplification of tropoelastin and GAPDH RNA was performed by standard quantitative RT-PCR (TAQMAN, Perken/Elmer) using appropriate selective primers. Tropo-elastin gene expression was normalized to the expression of standard house-keeping gene (GAPDH).
Samples were run in triplicate.

RXR receptors = conditions: cited from earlier work
[2] = Plasma triglyceride levels in rats; assay type: in vivo; conditions: plasma, 1 mg/kg/PO daily for two weeks
Description: Experimental emphysema was induced in rats as described in Example 2. Three (3) weeks post injury animals were treated with vehicle (Capmul solution) or retinoids prepared in Capmul and dosed orally at 1, 3, and 10 mg/kg body weight. Animals were treated for 14 days prior to termination of study. Lung harvest and blood collection was performed as described in Example 2.
Quantitation of triglycerides contained in rat plasma was performed after using established procedures in a contact clinical laboratory facility. Briefly, plasma triglycerides were converted to dihdroxyacetone and H2 O2, by sequential treatment of plasma with lipase and glycerokinase according directions described by manufacturer of triglycerides/GPO kit (Boehringer Mannheim #1488872). H2 02 was quantitated calorimetrically in a Hitachi 911 Chemistry Analyzer. In rats normal triglyceride levels are 75-175 mg/dl.
Dosage was at 1 mg/kg/PO daily for two weeks. […] Therefore, it appears that RARα selective activity is linked to elevated triglyceride levels.

alveolar septation = conditions: postnatal administration; newborn rats; listed as ATRA; cited from earlier work
experimental emphysema = assay: Alveolar repair in rat experimental emphysema, oral dosing; assay type: in vivo, rats; conditions: 1 mg/kg/PO daily for two weeks
Description: Three (3) weeks post injury animals were treated with vehicle (Capmul solution) or retinoids prepared in Capmul and dosed orally at 1, 3, and 10 mg/kg body weight. Animals were treated for 14 days prior to termination of study.
Dosage was at 1 mg/kg/PO daily for two weeks.

emphysema = conditions: animal models of emphysema; cited from earlier work

CC1=C(/C=C/C(C)=C/C=C/C(C)=C/C(=O)O)C(C)(C)CCC1 [RAR Agonist 4, All-trans retinoic acid]
binding to the three RAR subtypes (in words) (RAR subtypes): binds with approximately equal affinity to all the three RAR subtypes
% Repair ([1]; 0.5 mg/kg ip once daily, from 21 days post injury, 14 days): 50%
Alveolar Area ([1]; 0.5 mg/kg ip once daily, from 21 days post injury, 14 days, naive 1637 +/- 153, elastase + vehicle 3570 +/- 319): 2607 +/- 191
alveolar repair (in words) ([1]; elastase-treated rats, 0.5 mg/kg ip): induces alveolar repair, reversing the alveolar destruction caused by treatment with elastase
Tropo-elastin Expression (tropoelastin gene; CCD-16Lu, 1×10^-7 M, RT-PCR, triplicate, untreated control 30.90): 35.50 (Elastin/GAPDH) × 10^5
tropoelastin gene induction (in words) (tropoelastin gene; human lung fibroblasts, compared to the control): slightly induces tropoelastin gene induction
binding to RXR receptors (in words) (RXR receptors): does not bind to the RXR receptors
triglyceride levels (in words) [2]: either on the high end of normal or elevated
[Triglyceride] ([2]; normal rat 75-175 mg/dl): 182 mg/dL
number of alveoli / septation in lungs (in words) (alveolar septation): the capacity of dexamethasone to prevent the expression of CRBP and RARβ mRNA and subsequent alveolar septation in developing rat lung was abrogated by ATRA
% Repair (experimental emphysema): 37.6%
formation of new alveoli and elastic recoil (in words) (emphysema): can induce formation of new alveoli and return elastic recoil to near normal
